In ChEMBL document CHEMBL1201862, “PubChem BioAssay data set” (2004):
Activity calls are given as the source filed them.

Key:
[1] = target: Benomyl/methotrexate resistance protein (Candida albicans, UniProt P28873); experiment: Candida albicans Mdr1 pump blockade titration – singleplex, Cherry Pick2 set, dose response (AID 623992); assay type: functional; conditions: read-out: EC50_MICROM
[2] = A Cell Based Secondary Assay to Explore Cytotoxicity in THP-1 Cells of Compounds that Modulate Mycobacterium tuberculosis in Media Containing Glycerol versus Media without Glycerol (2).; assay type: functional
[3] = Vero cell cytotoxicity, cytotoxicity control for M. tuberculosis inhibitor project, purified and synthesized samples, set 3 (AID 504684); assay type: functional
[4] = microbe, parasite or virus in culture; assay type: functional; conditions: Mycobacterium tuberculosis
[5] = CCR5-tropic HIV-1 fusion blockers – cell-based, CCR5-tropic Env, dose response (AID 2279); assay type: functional
[6] = A Cell Based Secondary Assay to Explore Cytotoxicity in HepG2 Cells of Compounds that Modulate Mycobacterium tuberculosis in Media Containing Glycerol versus Media without Glycerol (2).; assay type: functional
Melanocortin receptor 4 = Melanocortin receptor 4 (Homo sapiens, UniProt P32245); experiment: inhibitors of MC4R cAMP signaling – cell-based, TR-FRET, biased antagonists, dose response (AID 602298); assay type: functional;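 further: antagonist potency against agonist-stimulated cAMP production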
Sequence of Melanocortin receptor 4 (P32245 whole entry): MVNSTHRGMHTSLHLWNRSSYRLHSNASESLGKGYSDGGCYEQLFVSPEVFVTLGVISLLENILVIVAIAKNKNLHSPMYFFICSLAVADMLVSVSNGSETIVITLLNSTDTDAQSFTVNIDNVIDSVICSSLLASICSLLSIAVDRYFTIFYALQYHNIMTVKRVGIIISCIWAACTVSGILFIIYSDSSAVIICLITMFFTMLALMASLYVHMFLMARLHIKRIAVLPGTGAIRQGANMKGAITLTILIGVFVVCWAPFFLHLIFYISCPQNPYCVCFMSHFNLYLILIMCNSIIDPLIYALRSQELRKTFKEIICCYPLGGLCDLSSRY

[7] = HEK-293T cell viability reduction – luminescence, B-cell screen hits, cytotoxicity control for BCR NF-kB inhibitor project, dose response (AID 489021); assay type: functional, cell-based;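 further: HEK-293T cells carrying an NF-kB luciferase reporter; cells exposed to compound for about 14 hours before viability readout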
[8] = cAMP pathway inhibition in counterscreen cell line – TR-FRET cAMP detection, counter-screen for MC4R biased antagonist project, dose response (AID 602305); assay type: functional, cell-based;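 further: U2OS cells stimulated with forskolin near its EC80 as the cAMP inducer; potency is for inhibition of forskolin-stimulated cAMP signaling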
[9] = target: T1, Sentrin-specific protease 6 (Homo sapiens, UniProt Q9GZR1); experiment: SAR Analysis of small molecule inhibitors of Sentrin-specific protease 6 (SENP6) using a Luminescent assay. [Related pubchem assays (depositor defined):AID2582, AID2599]; assay type: functional
T1 sequence (Q9GZR1 whole entry): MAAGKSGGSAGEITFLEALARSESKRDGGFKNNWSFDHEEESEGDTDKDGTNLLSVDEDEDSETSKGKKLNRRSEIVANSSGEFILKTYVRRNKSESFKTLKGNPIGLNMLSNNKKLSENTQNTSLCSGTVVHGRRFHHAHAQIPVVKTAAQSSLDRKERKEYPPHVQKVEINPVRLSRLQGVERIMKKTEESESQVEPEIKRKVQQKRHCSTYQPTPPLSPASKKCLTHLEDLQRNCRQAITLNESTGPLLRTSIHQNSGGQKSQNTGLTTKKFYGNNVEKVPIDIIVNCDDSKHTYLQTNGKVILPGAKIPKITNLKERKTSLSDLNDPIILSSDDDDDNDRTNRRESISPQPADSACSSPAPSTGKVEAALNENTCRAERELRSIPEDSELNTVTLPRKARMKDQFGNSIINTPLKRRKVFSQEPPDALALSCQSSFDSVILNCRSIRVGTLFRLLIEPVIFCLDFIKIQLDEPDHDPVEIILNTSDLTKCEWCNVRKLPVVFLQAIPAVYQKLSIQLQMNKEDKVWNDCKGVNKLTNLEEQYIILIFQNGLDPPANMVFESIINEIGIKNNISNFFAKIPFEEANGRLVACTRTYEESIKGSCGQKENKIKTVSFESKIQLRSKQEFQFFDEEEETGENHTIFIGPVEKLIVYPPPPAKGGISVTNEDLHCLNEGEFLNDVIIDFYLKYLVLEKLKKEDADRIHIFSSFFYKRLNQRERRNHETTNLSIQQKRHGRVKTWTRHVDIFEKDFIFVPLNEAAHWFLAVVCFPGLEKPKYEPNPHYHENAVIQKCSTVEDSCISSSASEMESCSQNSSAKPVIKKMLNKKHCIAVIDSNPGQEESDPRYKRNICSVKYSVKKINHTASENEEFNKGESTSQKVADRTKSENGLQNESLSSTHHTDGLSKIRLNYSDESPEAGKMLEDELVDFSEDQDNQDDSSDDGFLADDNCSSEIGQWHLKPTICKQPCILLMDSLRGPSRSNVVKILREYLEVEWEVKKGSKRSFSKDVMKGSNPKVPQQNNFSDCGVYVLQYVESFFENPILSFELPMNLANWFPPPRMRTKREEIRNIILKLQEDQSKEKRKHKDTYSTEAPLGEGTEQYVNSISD

Caspase-3 = target: T2, Caspase-3 (Homo sapiens, UniProt P42574); experiment: SAR Analysis of small molecule inhibitors of Sentrin-specific proteases (SENPs) using a Caspase-3 Selectivity assay. [Related pubchem assays (depositor defined):AID2540, AID2599, AID434973, AID489001]; assay type: functional
T2 sequence (P42574 whole entry): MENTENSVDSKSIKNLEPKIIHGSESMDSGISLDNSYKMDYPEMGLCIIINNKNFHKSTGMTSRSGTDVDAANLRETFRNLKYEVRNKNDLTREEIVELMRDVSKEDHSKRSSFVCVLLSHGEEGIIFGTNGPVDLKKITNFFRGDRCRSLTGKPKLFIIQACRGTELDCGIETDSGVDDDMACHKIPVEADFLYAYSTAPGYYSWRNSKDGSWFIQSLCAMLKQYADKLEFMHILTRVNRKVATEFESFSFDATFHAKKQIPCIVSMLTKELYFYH

[10] = target: T3, Sentrin-specific protease 8 (Homo sapiens, UniProt Q96LD8); experiment: inhibition of human SENP8 cleavage activity – biochemical, luminescence, SAR follow-up (AID 504501); assay type: functional
T3 sequence (Q96LD8 whole entry): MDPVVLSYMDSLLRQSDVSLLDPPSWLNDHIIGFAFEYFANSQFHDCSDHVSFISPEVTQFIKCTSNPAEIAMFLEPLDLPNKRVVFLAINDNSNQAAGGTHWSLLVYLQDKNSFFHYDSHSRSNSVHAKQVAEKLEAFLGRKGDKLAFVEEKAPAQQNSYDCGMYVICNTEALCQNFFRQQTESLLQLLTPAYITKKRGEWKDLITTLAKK

[11] = target: T4, Sentrin-specific protease 7 (Homo sapiens, UniProt Q9BQF6); experiment: inhibition of human SENP7 cleavage activity – biochemical, luminescence, SAR follow-up (AID 504497); assay type: functional
T4 sequence (Q9BQF6 whole entry): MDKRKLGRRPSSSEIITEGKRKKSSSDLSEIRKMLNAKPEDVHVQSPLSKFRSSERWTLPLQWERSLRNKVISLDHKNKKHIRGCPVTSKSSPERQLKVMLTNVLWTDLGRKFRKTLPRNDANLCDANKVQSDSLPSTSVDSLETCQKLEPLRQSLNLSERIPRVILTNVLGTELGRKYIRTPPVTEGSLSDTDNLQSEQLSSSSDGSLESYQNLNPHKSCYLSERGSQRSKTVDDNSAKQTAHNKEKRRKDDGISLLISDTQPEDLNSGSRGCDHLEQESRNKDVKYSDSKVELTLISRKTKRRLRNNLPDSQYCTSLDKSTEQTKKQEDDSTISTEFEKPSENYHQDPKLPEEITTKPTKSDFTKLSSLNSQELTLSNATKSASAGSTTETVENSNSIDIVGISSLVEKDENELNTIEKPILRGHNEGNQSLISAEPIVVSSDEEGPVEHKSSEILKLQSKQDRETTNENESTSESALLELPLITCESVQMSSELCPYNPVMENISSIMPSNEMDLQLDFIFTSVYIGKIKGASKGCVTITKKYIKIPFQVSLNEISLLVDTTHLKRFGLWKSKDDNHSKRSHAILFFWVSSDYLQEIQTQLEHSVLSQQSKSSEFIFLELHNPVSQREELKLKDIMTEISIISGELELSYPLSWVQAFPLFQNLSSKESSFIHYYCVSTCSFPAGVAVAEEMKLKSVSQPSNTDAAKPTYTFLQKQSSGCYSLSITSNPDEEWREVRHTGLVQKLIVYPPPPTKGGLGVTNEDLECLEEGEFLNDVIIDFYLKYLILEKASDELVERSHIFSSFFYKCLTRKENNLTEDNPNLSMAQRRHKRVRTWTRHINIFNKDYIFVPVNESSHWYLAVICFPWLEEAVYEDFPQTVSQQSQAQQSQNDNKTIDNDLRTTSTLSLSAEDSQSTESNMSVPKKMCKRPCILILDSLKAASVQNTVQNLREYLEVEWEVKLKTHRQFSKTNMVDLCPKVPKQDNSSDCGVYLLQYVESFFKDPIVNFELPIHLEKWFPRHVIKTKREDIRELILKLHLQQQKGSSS

[12] = target: Neuropeptides B/W receptor type 1 (Homo sapiens, UniProt P48145); experiment: human NPBW1 receptor blockade, IC50 – cell-based, fluorescence, dose response, set 5, late-stage follow-up (AID 588566); assay type: functional
Sequence of Neuropeptides B/W receptor type 1 (P48145 whole entry): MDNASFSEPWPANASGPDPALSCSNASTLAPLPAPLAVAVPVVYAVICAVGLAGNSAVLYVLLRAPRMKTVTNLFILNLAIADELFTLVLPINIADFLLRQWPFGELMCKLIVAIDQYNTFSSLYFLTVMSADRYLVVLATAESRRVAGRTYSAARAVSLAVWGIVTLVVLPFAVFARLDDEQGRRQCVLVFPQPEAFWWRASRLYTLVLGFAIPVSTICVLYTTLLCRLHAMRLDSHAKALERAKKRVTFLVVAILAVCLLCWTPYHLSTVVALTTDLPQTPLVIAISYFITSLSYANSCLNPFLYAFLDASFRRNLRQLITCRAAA

[13] = target: Melanin-concentrating hormone receptor 1 (Homo sapiens, UniProt Q99705); experiment: Late-stage fluorescence-based counterscreen for antagonists of the G-protein coupled receptor 7 (GPR7): cell-based dose response assay to identify antagonists of the melanin-concentrating hormone receptor 1 (MCHR1) Set 5.; assay type: functional
[14] = target: DNA dC->dU-editing enzyme APOBEC-3G (Homo sapiens, UniProt Q9HC16); experiment: inhibition of APOBEC3G ssDNA deamination – biochemical, fluorescence, single-stranded DNA substrate, SAR follow-up (AID 602136); assay type: functional; conditions: read-out: IC50_Mean
Sequence of DNA dC->dU-editing enzyme APOBEC-3G (Q9HC16 whole entry): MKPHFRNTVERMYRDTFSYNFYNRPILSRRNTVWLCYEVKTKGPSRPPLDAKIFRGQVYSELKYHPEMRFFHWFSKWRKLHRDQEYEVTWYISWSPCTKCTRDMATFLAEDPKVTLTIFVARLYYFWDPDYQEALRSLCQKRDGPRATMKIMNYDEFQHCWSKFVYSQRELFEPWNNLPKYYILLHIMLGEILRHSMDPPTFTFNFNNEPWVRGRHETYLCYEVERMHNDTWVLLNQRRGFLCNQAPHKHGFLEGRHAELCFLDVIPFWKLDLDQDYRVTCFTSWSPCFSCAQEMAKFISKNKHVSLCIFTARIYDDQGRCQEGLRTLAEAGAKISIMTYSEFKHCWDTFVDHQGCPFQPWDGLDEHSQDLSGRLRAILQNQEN

[15] = target: DNA dC->dU-editing enzyme APOBEC-3A (Homo sapiens, UniProt P31941); experiment: SAR analysis of small molecule inhibitors of APOBEC3A DNA Deaminase via a fluorescence-based single-stranded DNA deaminase assay.; assay type: functional; conditions: read-out: IC50_Mean
[16] = target: Tyrosine-protein kinase ABL1 (Homo sapiens, UniProt P00519); assay type: functional
[17] = target: Leucine-rich repeat serine/threonine-protein kinase 2 (Homo sapiens, UniProt Q5S007); assay type: functional;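 further: value from a broad kinome-wide panel profiling study in which LRRK2 was one of the kinases tested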
[18] = target: Insulin-like growth factor 1 receptor (Homo sapiens, UniProt P08069); experiment: Navigating the Kinome. Panel member name: IGF1R; assay type: functional
[19] = target: Tyrosine-protein kinase SYK (Homo sapiens, UniProt P43405); assay type: functional
Focal adhesion kinase 1 = Focal adhesion kinase 1 (Homo sapiens, UniProt Q05397); assay type: functional;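 further: measured as one member of a kinome panel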
[20] = target: Fibroblast growth factor receptor 3 (Homo sapiens, UniProt P22607); assay type: functional
[21] = target: Hepatocyte growth factor receptor (Homo sapiens, UniProt P08581); assay type: functional;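 further: kinase panel profiling across the kinome, with MET as the panel member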
Sequence of Hepatocyte growth factor receptor (P08581 whole entry): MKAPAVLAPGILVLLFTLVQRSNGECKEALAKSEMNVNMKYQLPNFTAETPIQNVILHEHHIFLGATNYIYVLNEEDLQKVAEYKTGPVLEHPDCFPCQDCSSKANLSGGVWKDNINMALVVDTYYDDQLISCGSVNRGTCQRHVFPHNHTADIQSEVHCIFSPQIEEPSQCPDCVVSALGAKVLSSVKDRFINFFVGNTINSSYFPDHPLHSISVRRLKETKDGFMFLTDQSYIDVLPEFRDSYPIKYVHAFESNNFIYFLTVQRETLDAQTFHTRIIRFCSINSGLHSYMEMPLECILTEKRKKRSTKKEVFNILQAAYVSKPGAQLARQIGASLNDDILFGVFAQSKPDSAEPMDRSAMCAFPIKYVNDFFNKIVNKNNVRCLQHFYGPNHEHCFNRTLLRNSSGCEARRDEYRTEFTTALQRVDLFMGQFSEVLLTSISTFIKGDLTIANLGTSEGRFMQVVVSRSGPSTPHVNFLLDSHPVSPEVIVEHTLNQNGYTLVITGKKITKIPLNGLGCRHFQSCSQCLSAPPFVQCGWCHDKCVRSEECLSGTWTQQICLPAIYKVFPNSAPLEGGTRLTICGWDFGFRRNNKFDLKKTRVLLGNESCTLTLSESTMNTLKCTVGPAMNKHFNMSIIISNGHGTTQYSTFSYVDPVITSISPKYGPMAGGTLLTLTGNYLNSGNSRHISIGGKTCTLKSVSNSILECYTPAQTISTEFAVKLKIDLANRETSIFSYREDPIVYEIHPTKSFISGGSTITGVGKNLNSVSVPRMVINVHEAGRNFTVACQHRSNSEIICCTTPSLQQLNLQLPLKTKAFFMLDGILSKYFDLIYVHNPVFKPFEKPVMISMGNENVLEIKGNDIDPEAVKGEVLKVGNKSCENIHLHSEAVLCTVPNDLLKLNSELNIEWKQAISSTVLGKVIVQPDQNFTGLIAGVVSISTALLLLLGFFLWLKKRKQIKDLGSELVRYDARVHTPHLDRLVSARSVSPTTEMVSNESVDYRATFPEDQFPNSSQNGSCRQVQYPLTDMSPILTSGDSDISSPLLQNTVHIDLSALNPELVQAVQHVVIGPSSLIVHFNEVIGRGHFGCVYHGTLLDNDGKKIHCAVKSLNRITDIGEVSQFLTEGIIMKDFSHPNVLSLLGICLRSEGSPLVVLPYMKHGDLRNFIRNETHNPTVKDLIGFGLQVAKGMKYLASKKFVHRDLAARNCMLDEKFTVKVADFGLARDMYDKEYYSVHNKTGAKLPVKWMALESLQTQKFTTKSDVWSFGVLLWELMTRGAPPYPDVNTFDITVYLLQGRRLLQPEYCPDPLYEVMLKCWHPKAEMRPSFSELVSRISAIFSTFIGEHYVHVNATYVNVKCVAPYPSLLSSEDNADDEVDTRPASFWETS

[22] = target: Cell division cycle 7-related protein kinase (Homo sapiens, UniProt O00311); assay type: functional;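 further: value obtained from a kinome-wide kinase panel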
Sequence of Cell division cycle 7-related protein kinase (O00311 whole entry): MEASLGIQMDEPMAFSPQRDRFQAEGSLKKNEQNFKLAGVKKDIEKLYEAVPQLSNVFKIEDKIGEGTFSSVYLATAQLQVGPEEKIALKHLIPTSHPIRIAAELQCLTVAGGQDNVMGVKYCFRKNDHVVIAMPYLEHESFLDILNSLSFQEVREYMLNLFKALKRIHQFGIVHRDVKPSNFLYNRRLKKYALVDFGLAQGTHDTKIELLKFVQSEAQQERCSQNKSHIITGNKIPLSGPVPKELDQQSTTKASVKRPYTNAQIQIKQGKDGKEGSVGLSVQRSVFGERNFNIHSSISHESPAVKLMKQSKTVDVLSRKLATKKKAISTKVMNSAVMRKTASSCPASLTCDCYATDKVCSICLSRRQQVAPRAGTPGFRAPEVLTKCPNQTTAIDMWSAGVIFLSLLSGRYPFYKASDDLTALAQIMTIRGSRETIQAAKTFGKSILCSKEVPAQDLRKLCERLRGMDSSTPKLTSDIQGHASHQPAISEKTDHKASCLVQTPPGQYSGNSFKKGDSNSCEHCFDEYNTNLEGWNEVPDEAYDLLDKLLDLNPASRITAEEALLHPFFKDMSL

[23] = target: Cyclin-dependent kinase 2 (Homo sapiens, UniProt P24941); assay type: functional;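 further: CDK2 measured as one member of a broad kinome profiling panel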
[24] = target: Dual specificity protein kinase CLK4 (Homo sapiens, UniProt Q9HAZ1); assay type: functional
[25] = target: Serine/threonine-protein kinase pim-1 (Homo sapiens, UniProt P11309); assay type: functional
Sequence of Serine/threonine-protein kinase pim-1 (P11309 whole entry): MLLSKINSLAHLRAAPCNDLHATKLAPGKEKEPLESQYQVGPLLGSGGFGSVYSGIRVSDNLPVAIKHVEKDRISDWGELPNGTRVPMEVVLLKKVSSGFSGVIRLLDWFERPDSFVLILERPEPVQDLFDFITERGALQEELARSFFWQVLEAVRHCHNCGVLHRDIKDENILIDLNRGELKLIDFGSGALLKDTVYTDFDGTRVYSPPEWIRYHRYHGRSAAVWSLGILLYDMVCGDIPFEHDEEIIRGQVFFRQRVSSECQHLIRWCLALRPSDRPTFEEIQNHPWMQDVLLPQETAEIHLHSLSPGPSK

[26] = target: Mitogen-activated protein kinase kinase kinase kinase 4 (Homo sapiens, UniProt O95819); assay type: functional
Sequence of Mitogen-activated protein kinase kinase kinase kinase 4 (O95819 whole entry): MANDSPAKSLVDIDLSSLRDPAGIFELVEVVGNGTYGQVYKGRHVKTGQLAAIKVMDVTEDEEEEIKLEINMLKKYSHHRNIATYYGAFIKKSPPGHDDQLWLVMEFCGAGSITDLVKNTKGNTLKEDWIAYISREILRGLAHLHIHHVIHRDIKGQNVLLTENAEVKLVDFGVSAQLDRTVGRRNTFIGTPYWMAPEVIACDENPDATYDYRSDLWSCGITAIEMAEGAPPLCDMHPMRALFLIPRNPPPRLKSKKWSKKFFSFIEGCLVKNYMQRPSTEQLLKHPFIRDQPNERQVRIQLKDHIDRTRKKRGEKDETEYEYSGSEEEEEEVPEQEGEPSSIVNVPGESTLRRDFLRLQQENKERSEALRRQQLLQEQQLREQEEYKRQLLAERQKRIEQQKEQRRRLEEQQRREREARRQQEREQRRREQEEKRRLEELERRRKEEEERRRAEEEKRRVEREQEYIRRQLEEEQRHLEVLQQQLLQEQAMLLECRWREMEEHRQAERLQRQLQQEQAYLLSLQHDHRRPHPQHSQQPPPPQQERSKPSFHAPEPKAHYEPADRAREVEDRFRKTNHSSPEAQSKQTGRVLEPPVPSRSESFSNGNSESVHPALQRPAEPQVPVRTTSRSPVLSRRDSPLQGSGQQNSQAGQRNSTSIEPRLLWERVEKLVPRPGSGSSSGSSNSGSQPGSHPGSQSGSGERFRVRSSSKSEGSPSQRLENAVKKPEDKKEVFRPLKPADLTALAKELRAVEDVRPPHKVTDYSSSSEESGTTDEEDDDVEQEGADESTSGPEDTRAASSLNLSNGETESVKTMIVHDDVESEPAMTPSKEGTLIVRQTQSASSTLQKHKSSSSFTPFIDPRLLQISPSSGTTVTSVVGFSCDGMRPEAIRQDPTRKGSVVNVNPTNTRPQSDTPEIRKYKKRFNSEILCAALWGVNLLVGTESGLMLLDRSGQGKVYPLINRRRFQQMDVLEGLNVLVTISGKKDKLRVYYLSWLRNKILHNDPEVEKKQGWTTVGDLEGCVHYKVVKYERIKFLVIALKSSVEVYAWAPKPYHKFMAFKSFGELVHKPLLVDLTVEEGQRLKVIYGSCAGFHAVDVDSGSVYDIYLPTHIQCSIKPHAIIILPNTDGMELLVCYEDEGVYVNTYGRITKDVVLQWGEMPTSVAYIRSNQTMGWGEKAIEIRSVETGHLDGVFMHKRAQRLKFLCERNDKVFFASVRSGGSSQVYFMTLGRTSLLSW

[27] = target: Interleukin-1 receptor-associated kinase 4 (Homo sapiens, UniProt Q9NWZ3); assay type: functional
Sequence of Interleukin-1 receptor-associated kinase 4 (Q9NWZ3 whole entry): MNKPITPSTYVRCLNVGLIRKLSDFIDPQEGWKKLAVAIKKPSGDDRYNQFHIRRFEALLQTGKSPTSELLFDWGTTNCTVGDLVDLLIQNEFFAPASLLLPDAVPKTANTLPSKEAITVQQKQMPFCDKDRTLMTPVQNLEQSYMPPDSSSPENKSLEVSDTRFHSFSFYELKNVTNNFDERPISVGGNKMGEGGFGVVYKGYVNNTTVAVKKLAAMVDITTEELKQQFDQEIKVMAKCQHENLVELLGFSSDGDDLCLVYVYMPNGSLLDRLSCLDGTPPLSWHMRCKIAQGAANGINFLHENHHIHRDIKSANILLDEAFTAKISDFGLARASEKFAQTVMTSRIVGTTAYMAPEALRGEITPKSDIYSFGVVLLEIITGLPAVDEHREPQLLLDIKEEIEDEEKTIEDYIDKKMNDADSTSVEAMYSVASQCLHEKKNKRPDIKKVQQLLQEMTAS

[28] = target: Homeodomain-interacting protein kinase 2 (Homo sapiens, UniProt Q9H2X6); assay type: functional;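 further: measured within a kinome-wide kinase profiling panel, HIPK2 being one panel member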
[29] = target: cAMP-dependent protein kinase catalytic subunit alpha (Homo sapiens, UniProt P17612); assay type: functional
[30] = target: Glycogen synthase kinase-3 beta (Homo sapiens, UniProt P49841); assay type: functional;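 further: value comes from a broad kinome profiling panel, with GSK3B as the panel member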
[31] = target: Protein kinase C delta type (Homo sapiens, UniProt Q05655); assay type: functional
Misshapen-like kinase 1 = Misshapen-like kinase 1 (Homo sapiens, UniProt Q8N4C8); assay type: functional;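 further: kinome panel screen with MINK as the panel member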

O=C(c1ccc2c(c1)OCO2)N1CCC2(CC1)Oc1ccc(F)cc1C(=O)C21CC(c2ccccc2)=NO1 (stereo unspecified)
EC50 [1]: 9.25 µM (active)

CC(C)NC(=O)c1sc(=S)n2c1[nH]c(=O)c1ccc(C(=O)NCCc3ccc(Cl)cc3)cc12
CC50 [2]: > 100 µM (active) | CC50 [3]: > 100 µM (active) | CC50 [4]: > 40 µM (active) | IC50 [5]: 41.5 µM (active) | CC50 [6]: > 50 µM (active)

O=C1NC[C@H](c2ccccc2)OC(=O)[C@@H](Cc2ccc(F)cc2)C/C=C\C[C@H]1CC(=O)N(CCO)Cc1ccccc1
IC50 (Melanocortin receptor 4): > 64.6 µM (inactive) | IC50 [7]: 30.3 µM (inactive) | IC50 [8]: > 64.6 µM (inactive)

Clc1ccc(N/N=C/c2c[nH]c3ccccc23)cc1
IC50 [9]: > 99 µM (inactive) | IC50 (Caspase-3): > 99 µM (inactive) | IC50 [10]: > 99 µM (inactive) | IC50 [11]: 57 µM (active)

COc1c(F)cc(Oc2c(Cl)cnn(Cc3cccc4ccccc34)c2=O)cc1F
IC50 [12]: 2.2 µM (active) | IC50 [13]: 7.43 µM (active)

Cc1ccc(NC(=O)CCSc2nnc3scc(-c4ccccc4)n23)cc1
IC50 [14]: > 99 µM (inactive) | IC50 [15]: > 99 µM (inactive)

c1ccc(CNc2nc(Nc3cc(C4CC4)[nH]n3)c3sccc3n2)cc1
Ki [16]: 0.01 µM (active) | Ki [17]: 0.01 µM (active) | Ki [18]: 0.0794 µM (active) | Ki [19]: 0.0126 µM (active) | Ki (Focal adhesion kinase 1): 0.00501 µM (active) | Ki [20]: 0.00316 µM (active) | Ki [21]: 0.794 µM (active)

O=c1cc(-c2ccc(F)cc2)[nH]c2c(-c3ccc(F)cc3)cnn12
Ki [22]: 0.0501 µM (active) | Ki [23]: > 7.94 µM (inactive) | Ki [24]: 0.158 µM (active) | Ki [25]: 0.0501 µM (active) | Ki [26]: > 10 µM (inactive) | Ki [27]: > 10 µM (inactive) | Ki [28]: 0.2 µM (active) | Ki [29]: > 7.94 µM (inactive) | Ki [30]: 0.501 µM (active)

CC(C)Oc1ccc(-c2noc(-c3ccc(OCC(O)CO)cc3)n2)cc1Cl (stereo unspecified)
Ki [31]: 7.94 µM (active) | Ki [26]: 2 µM (active) | Ki (Misshapen-like kinase 1): 6.31 µM (active)
